Test results as given in patent publication US12599672B2, “KRAS proteolysis targeting chimeras” (PAQ Therapeutics Inc., priority 2023, dated 2026).

Columns and labels:
Assay type in all cases: cell-based
KRAS G12V = molecular target: T1, KRAS G12V (Homo sapiens, UniProt P01116, G12V); experiment: KRAS G12V HiBit assay; conditions: SW620-KRAS (G12V)-HiBit-KI cells, compound treatment for 24 hours, class symbols
T1 construct: SW620-KRAS (G12V)-HiBit-KI cell (Pharmaron); host or cells: SW620-KRAS (G12V)-HiBit-KI cells (HiBiT knock-in at the endogenous KRAS locus)
In short: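 HiBiT-tagged KRAS G12V cells treated 24 h with compound in a 3-fold, 10-point series (0.3 mM DMSO stock); lytic HiBiT reagent with LgBiT added after 15 min room-temperature equilibration. Degradation calculated against 0.1% DMSO high control.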

KRAS = molecular target: T2, KRAS (Homo sapiens, UniProt P01116); experiment: KRASamp MSD assay; conditions: KE39 (KRAS amplified) cells, treated with test compounds for 24 hr, MSD readout of KRAS degradation
T2 construct: endogenous in cells; host or cells: KE39 (KRAS amplified) cells
In short: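 KRAS-amplified KE39 cells treated with compound for 24 hr, then lysed in RIPA buffer with protease/phosphatase inhibitors. KRAS protein measured by MSD sandwich immunoassay against a recombinant WT KRAS standard curve; DC50 derived from curve fitting of degradation.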

KRAS G12D = molecular target: T3, KRAS G12D (Homo sapiens, UniProt P01116, G12D); experiment: KRAS G12D HiBit assay; conditions: AsPc-1-KRAS (G12D)-HiBit-KI cell, compound treatment for 24 hours, absolute DC50
T3 construct: AsPc-1-KRAS (G12D)-HiBit-KI cell (Pharmaron); host or cells: AsPc-1-KRAS (G12D)-HiBit-KI cells (HiBiT knock-in at the endogenous KRAS locus)
In short: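 Cells were treated for 24 h with compounds in a 3-fold, 10-point dilution series from a 0.3 mM DMSO stock, then equilibrated 15 min at room temperature. KRAS G12D HiBiT levels were read by luminescence after lytic Nano-Glo HiBiT reagent with LgBiT; inhibition calculated relative to 0.1% DMSO high control.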

T3 sequence (P01116 1-188 isoform P01116-2 G12D): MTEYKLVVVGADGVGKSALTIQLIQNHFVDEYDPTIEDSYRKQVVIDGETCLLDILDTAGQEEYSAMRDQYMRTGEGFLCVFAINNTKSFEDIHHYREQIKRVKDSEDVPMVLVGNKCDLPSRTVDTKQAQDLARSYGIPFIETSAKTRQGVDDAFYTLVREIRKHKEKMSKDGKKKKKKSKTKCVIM
T1 sequence (P01116 1-188 isoform P01116-2 G12V): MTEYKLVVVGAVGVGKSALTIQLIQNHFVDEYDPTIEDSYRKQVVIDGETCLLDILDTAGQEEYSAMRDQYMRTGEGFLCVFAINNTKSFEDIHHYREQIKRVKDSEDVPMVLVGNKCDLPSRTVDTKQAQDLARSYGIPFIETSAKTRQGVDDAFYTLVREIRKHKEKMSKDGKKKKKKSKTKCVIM
T2 sequence (P01116 1-188 isoform P01116-2): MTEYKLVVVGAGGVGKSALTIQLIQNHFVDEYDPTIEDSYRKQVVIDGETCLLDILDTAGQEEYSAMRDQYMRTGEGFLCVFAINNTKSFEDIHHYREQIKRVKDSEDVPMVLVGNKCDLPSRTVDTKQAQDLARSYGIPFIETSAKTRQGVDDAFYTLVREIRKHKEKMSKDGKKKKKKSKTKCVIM

DC50 (KRAS G12V) [nM]	DC50 (KRAS) [nM]	DC50 (KRAS G12D; class symbols) [nM]	DC50 (KRAS G12D; numeric bounds given in place of class symbols) [nM]	Structure (SMILES)
> 100	1 to 10	< 100	–	CCc1c(F)ccc2cc(O)cc(-c3ncc4c(N5CCC[C@@](C)(O)C5)nc(OC[C@@]56CCCN5[C@H](CN5CCC7(CC5)CC(N5CCC(c8ccc9c(c8)n(C)c(=O)n9C8CCC(=O)NC8=O)CC5)C7)CC6)nc4c3F)c12 (stereo partly drawn) [Compound 471, 3-(5-(1-(7-(((3S,7aS)-7a-(((7-(8-Ethyl-7-fluoro-3-hydroxynaphthalen-1-yl)-8-fluoro-4-((R)-3-hydroxy-3-methylpiperidin-1-yl)pyrido[4,3-d]pyrimidin-2-yl)oxy)methyl)hexahydro-1H-pyrrolizin-3-yl)methyl)-7-azaspiro[3.5]nonan-2-yl)piperidin-4-yl)-3-methyl-2-oxo-2,3-dihydro-1H-benzo[d]imidazol-1-yl) piperidine-2,6-dione]
10 to 100	1 to 10	< 100	–	CCc1c(F)ccc2cc(O)cc(-c3ncc4c(N5CCC[C@@](C)(O)C5)nc(OC[C@]56CCCN5[C@H](CCCN5CCC(c7ccc8c(c7)n(C)c(=O)n8C7CCC(=O)NC7=O)CC5)CC6)nc4c3F)c12 (stereo partly drawn) [Compound 473, 3-(5-(1-(3-((3R,7aR)-7a-(((7-(8-Ethyl-7-fluoro-3-hydroxynaphthalen-1-yl)-8-fluoro-4-((R)-3-hydroxy-3-methylpiperidin-1-yl)pyrido[4,3-d]pyrimidin-2-yl)oxy)methyl)hexahydro-1H-pyrrolizin-3-yl)propyl)piperidin-4-yl)-3-methyl-2-oxo-2,3-dihydro-1H-benzo[d]imidazol-1-yl) piperidine-2,6-dione]
< 10	< 1	< 100	–	Cn1c(=O)n(C2CCC(=O)NC2=O)c2ccc(C3CCN(C4CC5(CCN(C(=O)OC[C@@H]6CC[C@]7(COc8nc(N9CCC[C@@](C)(O)C9)c9cnc(-c%10cc(O)cc%11ccc(F)cc%10%11)cc9n8)CCCN67)CC5)C4)CC3)cc21 (stereo partly drawn) [Compound 474, ((3S,7aS)-7a-(((7-(7-fluoro-3-hydroxynaphthalen-1-yl)-4-((R)-3-hydroxy-3-methylpiperidin-1-yl)pyrido[4,3-d]pyrimidin-2-yl)oxy)methyl)hexahydro-1H-pyrrolizin-3-yl)methyl 2-(4-(1-(2,6-dioxopiperidin-3-yl)-3-methyl-2-oxo-2,3-dihydro-1H-benzo[d]imidazol-5-yl)piperidin-1-yl)-7-azaspiro[3.5]nonane-7-carboxylate]
< 10	1 to 10	< 100	–	CCc1c(F)ccc2cc(O)cc(-c3ncc4c(N5CCC[C@@H](N)C5)nc(OC[C@@]56CCCN5[C@H](COC(=O)N5CCC7(CC5)CC(N5CCC(c8ccc9c(c8)n(C)c(=O)n9C8CCC(=O)NC8=O)CC5)C7)CC6)nc4c3F)c12 (stereo partly drawn) [Compound 476, ((3S,7aS)-7a-(((4-((R)-3-aminopiperidin-1-yl)-7-(8-ethyl-7-fluoro-3-hydroxynaphthalen-1-yl)-8-fluoropyrido[4,3-d]pyrimidin-2-yl)oxy)methyl)hexahydro-1H-pyrrolizin-3-yl)methyl 2-(4-(1-(2,6-dioxopiperidin-3-yl)-3-methyl-2-oxo-2,3-dihydro-1H-benzo[d]imidazol-5-yl)piperidin-1-yl)-7-azaspiro[3.5]nonane-7-carboxylate]
> 100	≥ 10	–	> 100	CCc1c(F)ccc2cc(O)cc(-c3ncc4c(N5CCC[C@H](N)C5)nc(OC[C@@]56CCCN5[C@H](COC(=O)N5CCC7(CC5)CC(N5CCC(c8ccc9c(c8)n(C)c(=O)n9C8CCC(=O)NC8=O)CC5)C7)CC6)nc4c3F)c12 (stereo partly drawn) [Compound 477, ((3S,7aS)-7a-(((4-((S)-3-aminopiperidin-1-yl)-7-(8-ethyl-7-fluoro-3-hydroxynaphthalen-1-yl)-8-fluoropyrido[4,3-d]pyrimidin-2-yl)oxy)methyl)hexahydro-1H-pyrrolizin-3-yl)methyl 2-(4-(1-(2,6-dioxopiperidin-3-yl)-3-methyl-2-oxo-2,3-dihydro-1H-benzo[d]imidazol-5-yl)piperidin-1-yl)-7-azaspiro[3.5]nonane-7-carboxylate]
